The values that follow come from patent US9782464B2, “Methods and compositions for inhibiting diseases of the central nervous system” (Board of Regents of the University of Nebraska, priority 2008, dated 2017).

In test [1] the test system is anti-CD3 stimulated T cells. As to the kind of experiment: PI uptake cytotoxicity of anti-CD3 stimulated T cells (flow cytometry). The settings on record: 24 hours. It counts as cell-based, mouse. As to the method: To assess α-Syn-mediated cytotoxicity, purified T cells were stimulated with anti-CD3 and cultured at a density of 1×10^6 cells/ml for 24 hours in media alone or in the presence of 4YSyn or N-4YSyn at concentrations of 1, 3, 10, or 30 μg/ml. Cells were stained with PI, washed and the percentages of PI^+ dead cells and MFI were analyzed by flow cytometry.
On the technique in general: Flow cytometry measures light scatter and fluorescence of single cells or particles in a stream.

For test [2], the system named is anti-CD3 stimulated T cells. As to the kind of experiment: Proliferation of anti-CD3 activated T cells with 4YSyn or N-4YSyn. The test is classed as cell-based, mouse. The following applies: 1, 3, 10 and 30 μg/ml. As to the method: For proliferation analyses, purified T cells from naive B6 mice were plated with SPC irradiated at 3000 rad (1:3) at 2×10^6 cells/ml in complete RPMI tissue culture media and activated with anti-CD3 (0.5 μg/ml, 145-2C11; BD Pharmingen) in U-bottom 96-well tissue culture plates. Graded concentrations of 4YSyn or N-4YSyn were added to quadruplicate wells. After activation for 3 days, ^3H-thymidine incorporation was performed as described previously.

The next test concerns SPC (spleen cells). The experiment in a line: Antigen-specific 3H-thymidine proliferation of SPC from immunized mice. It counts as cell-based, mouse. The following applies: B10.BR mice immunized in CFA/IFA.
The test system of a further test is MES23.5 cells. As to the kind of experiment: Cathepsin B inhibition and neurotoxicity, microglial supernatants on MES23.5 cells. The test is classed as cell-based. The settings on record: inhibitor 1 μM, N-α-syn 100 nM. As to the method:
MES 23.5 cells were cultured in 75-cm^2 flasks in DMEM/F12 with 15 mM HEPES (Invitrogen) containing N2 supplement (Invitrogen), 100 U/ml of penicillin, 100 μg/ml streptomycin, and 5% FBS. MES23.5 cells is a cell line derived using somatic cell fusion of rat embryonic mesencephalon cells and the murine neuroblastoma-glioma cell line N18TG2 that produce dopamine and express tyrosine hydroxylase (Crawford et al. (1992) J. Neuroscience 12:3392-3398). Cells were grown to 80% confluence then plated at a density of 10×10^4 cells on sterile glass coverslips. Microglia were plated in 6 well plates and incubated for 1 hour with or without 1 μM of cathepsin B inhibitors, CA-074 [cell impermeable] or CA-074 Me [cell permeable] (Sigma), in a 37° C., 5% CO2 incubator to inhibit residual cathepsin B expression (Gan et al. (2004) J. Biol. Chem., 279:5565-5572). […] MES 23.5 cell viability was assessed using the Live/Dead cytotoxicity assay (Invitrogen) as previously described. Live cells were distinguished by the uptake of calcein AM to acquire a green fluorescence [excitation/emission (ex/em) 495/515 nm], while dead cells acquired a red fluorescence (ex/em 495/635 nm) due to the uptake of ethidium homodimer-1 (EthD-1). Cell enumerations were performed using fluorescence microscopy (200× magnification, n=6 wells per group, 3 frames per well).

A further test deals with MPTP-intoxicated B6 mice. The experiment in a line: Adoptive transfer of immune SPC to MPTP-treated B6 mice. The test is classed as in vivo, mouse. The following applies: day 7.
Test [3] concerns MPTP-intoxicated B10.BR mice. The experiment in a line: Adoptive transfer of immune SPC or T cells to MPTP-treated B10.BR mice. The test is classed as in vivo, mouse.
Test [4] deals with MPTP-intoxicated mice. The experiment in a line: Adoptive transfer of polarized N-4YSyn CD4+ T cell subsets to MPTP-intoxicated mice. The following applies: 7 days after MPTP. The test is classed as in vivo, mouse. As to the method: (§1) Recombinant C-terminal tail of α-syn (4YSyn) was purified, nitrated (N-4YSyn), and tested for endotoxin as described. Male C57BL/6J mice and FoxP3-GFP knock in C57BL/6J mice (5 weeks old, The Jackson Laboratory) were immunized with N-4YSyn emulsified in adjuvant as described. […] Recipient mice received four i.p. injections at 2 hour intervals of either vehicle (PBS, 10 mL/kg bodyweight) or MPTP-HCl (16 mg MPTP/kg bodyweight of free base in PBS; Sigma-Aldrich). Twelve hours after the last injection, MPTP-intoxicated mice received adoptive transfers of whole SPC, Treg or no cells (n=5-7 mice per group per time point). On days 2 and 7 post-MPTP, mice were sacrificed and brains were processed for analysis. […] MPTP safety measures were in accordance with published guidelines (Przedborski et al. (2001) J. Neurochem., 76:1265-1274).
CD4+ T cells were isolated from N-4YSyn immunized donors and cultured 1×10^6/ml CD4+ T cells with 2×10^6/ml irradiated SPC and […] N-4YSyn in 20 ml of complete RPMI 1640 supplemented with 10% FBS, 2 mM L-glutamine, 10 mM HEPES, 55 μm 2-mercaptoethanol, 100 units/ml penicillin, and 100 μg/ml streptomycin in T25 flasks. […]
Mice were transcardially-perfused with PBS followed by 4% paraformaldehyde (PFA, Sigma). […] Fluorojade C staining (Millipore) was performed on adjacent sections according to manufacturer's protocol to assess degenerating neurons and quantified using ImageJ. Overall dopaminergic neuron survival was assessed seven days following MPTP intoxication and resolution of cell death processes with polyclonal antibody to mouse Tyrosine hydroxylase (TH), 1:1000 (Calbiochem) and counterstained for Nissl substance by thionin staining (Tieu et al. (2003) J. Clin. Invest., 112:892-901) as previously described (Benner et al. (2004) Proc. Natl. Acad. Sci., 101:9435-9440). […] Quantitation of striatal TH (1:500; Calbiochem) was performed by densitometric analysis as described (Benner et al. (2004) Proc. Natl. Acad. Sci., 101:9435-9440). […]

The test system of a further test is TH+ neurons in the SN. As to the kind of experiment: Chronic MPTP intoxication, TH+ neuron counts in SN of WT and SCID mice. It counts as in vivo, mouse. As to the method: For chronic intoxication, B6 mice received 5 intraperitoneal (i.p.) injections at 24 hour intervals for 5 days of either vehicle (PBS, 10 ml/kg) or MPTP-HCl (30 mg/kg of free base in PBS) (Sigma-Aldrich, St. Louis, Mo.). For acute intoxication, mice received 4 i.p. injections, one every 2 hours, of either vehicle (PBS, 10 ml/kg) or MPTP-HCl (18 mg/kg of free base in PBS for B10.BR mice, 14 or 18 mg/kg for B6 mice). At selected time points following MPTP intoxication, mice were sacrificed and brains processed for subsequent analyses. MPTP handling and safety measures were in accordance with published guidelines (Przedborski et al. (2001) J. Neurochem., 76:1265-1274).
At the time points indicated following MPTP intoxication, mice were transcardially perfused with 4% paraformaldehyde (PFA) in 0.1 M PBS using 0.9% saline as vascular rinse. Brains were post-fixed in 4% PFA overnight, kept in 30% sucrose for 2 days, snap frozen, embedded in OCT compound, and […] sections cut on a cryostat (CM1900, Leica, Bannockburn, Ill.). The sections were collected in PBS and processed free-floating. […] Fluoro-Jade C (Chemicon International, Inc., Temecula, Calif.) was used to stain degenerating neurons (Schmued et al. (2005) Brain Res., 1035:24-31) and was detected as green fluorescence by fluorescence microscopy with FITC filter (Eclipse E800, Nikon, Inc., Melville, N.Y.). […]

The test system of test [5] is MPTP-intoxicated mice. As to the kind of experiment: Adoptive transfer of N-4YSyn and VIP SPC or Treg to MPTP-intoxicated mice (Example 6). It counts as in vivo, mouse. As to the method: as §1
Seven days following treatment, mice were sacrificed and single cell suspensions were prepared from inguinal lymph nodes and spleens. CD4+ T cell populations from spleens and lymph nodes were enriched by negative selection with CD4-enrichment columns (R & D Systems) followed by CD25-PE positive selection with AutoMACS (Miltenyi Biotec). […] Proliferation and inhibition assays were performed as described. MPTP-intoxicated mice received an i.v. tail injection of 5×10^7 SPC or 1×10^6 Treg in 0.25 ml of HBSS.
Mice were transcardially-perfused with PBS followed by 4% paraformaldehyde (PFA, Sigma). Frozen midbrain sections (30 μm) were immunostained for Mac-1 (CD11b, 1:1000; Serotec). Fluorojade C staining (Millipore) was performed on adjacent sections according to manufacturer's protocol to assess degenerating neurons and quantified using ImageJ. Overall dopaminergic neuron survival was assessed seven days following MPTP intoxication and resolution of cell death processes with polyclonal antibody to mouse Tyrosine hydroxylase (TH), 1:1000 (Calbiochem) and counterstained for Nissl substance by thionin staining (Tieu et al. (2003) J. Clin. Invest., 112:892-901) as previously described (Benner et al. (2004) Proc. Natl. Acad. Sci., 101:9435-9440). Total numbers of Mac-1^+ cells, […] and Nissl-stained neurons in the SNpc were estimated by stereological analysis with StereoInvestigator software (MicroBrightfield) using the optical fractionator module (Liberatore et al. (1999) Nat. Med., 5:1403-1409). Quantitation of striatal TH (1:500; Calbiochem) was performed by densitometric analysis as described (Benner et al. (2004) Proc. Natl. Acad. Sci., 101:9435-9440). Adjacent midbrain sections were immunostained for CD4 (L3T4; 1:200, BD Pharmingen). Sections were incubated in streptavidin-horseradish peroxidase (HRP) solution (ABC Elite vector kit, Vector Laboratories), and color developed using a generation system consisting of diaminobenzidine (DAB) chromogen (Sigma-Aldrich) as described (Benner et al. (2004) Proc. Natl. Acad. Sci., 101:9435-9440).

The test system of a further test is B6 SOD1 Tg mice. The experiment in a line: COP-1 immunization of B6 SOD1 Tg mice.

As to “4YSyn: recombinant His-tagged C-terminal 40 aa α-Syn fragment containing all four tyrosine residues, non-nitrated”, the “% PI+ T cells” value is given as 4.9% in test [1] (1 μg/ml), 6% in [1] (3 μg/ml), 4.7% in test [1] (10 μg/ml) and 4.2% in [1] (30 μg/ml). The “MFI of PI-stained T cells” value in [1] (1 μg/ml) amounted to 32.3; in test [1] (3 μg/ml), 34.1; in test [1] (10 μg/ml), 25.2; in test [1] (30 μg/ml), 26.8. Moreover, the “proliferation of anti-CD3 stimulated T cells” value in test [2] is listed as “not inhibited”. In the test with SPC (spleen cells), the “proliferative response of SPC to in vitro stimulation with the antigen” value is “no significant immune responses”.

As to `CCCNC(=O)[C@H]1O[C@@H]1C(=O)N[C@H](C(=O)N1CCC[C@H]1C(=O)O)[C@@H](C)CC` [CA-074], the “protection of DA cells v. N-α-syn alone” value in the test with MES23.5 cells is recorded as 53%.

`CN1CC=C(c2ccccc2)CC1` [MPTP, 1-methyl-4-phenyl-1,2,3,6-tetrahydropyridine]: the “loss of TH+ nigral neurons compared to PBS-treated controls” value in the test on MPTP-intoxicated B6 mice was determined as 43%. In test [3] (MPTP-treated B10.BR mice, stereology), the “reduction of SN TH+ neurons compared to PBS controls” value amounted to 45%. In addition, in [3] (SN of MPTP-treated B10.BR mice, mean±SEM), the “Counts of Mac-1+ microglia” value is 27.7±3.2 /mm^2. Further, in the test on MPTP-intoxicated mice [4], the “TH density within the striatum” value is listed as 26 % of PBS-treated controls, the “loss of TH+ neurons vs PBS-treated controls” value is 25% and the “total TH+ neurons within the SNpc” value was 5971±250. In addition, in the test with TH+ neurons in the SN (SCID mice), the “numbers of TH+ neurons compared to PBS” value is on record as “No significant difference”. In addition, the “reduction in numbers of TH+ neurons in the SN compared to PBS” value in the test with TH+ neurons in the SN (WT B6 mice, 21 days after last injection) is 33%. The “increase in numbers of Mac-1+ cells within the SNpc compared with PBS controls” value in the test with MPTP-intoxicated mice [5] (2 days post-MPTP) is recorded as “greater than 16 fold”. Besides, in the test on MPTP-intoxicated mice [5] (7 days after MPTP, FIG. 35C), the “loss of nigral TH+ neurons compared with PBS controls” value came to 45%. Also, the “reduction of SNpc TH+ neurons compared with PBS controls” value in the test on MPTP-intoxicated mice [5] (7 days after MPTP, FIG. 38B) is recorded as 48%. Also, the “Striatal TH+ density” value with MPTP-intoxicated mice [5] (7 days after MPTP, FIG. 38C) is 16 % of PBS controls. The “TH+ neuron survival” value in the test on MPTP-intoxicated mice [5] (MPTP mice, FIG. 38D, Treg co-transferred with N-4YSyn SPC) turned out to be 49%.

Consider glatiramer acetate [COP-1], for which the “increase of mean age of survival compared to PBS controls” value in the test with B6 SOD1 Tg mice (75 μg s.c. every other week) was 6.1%; in the test on B6 SOD1 Tg mice (75 μg s.c. weekly), 9.9%.
